Reference: patent publication US20120329832A1, “Novel Insect-Repellent Coumarin Derivatives, Syntheses, and Methods of Use” (priority 2011, published 2012)
Where two headings read alike, the source gives them in different places.

Assays:
drosophila = assay: Tests in vivo on drosophila: two-tube repellency test, Repulsive Index; design: key to RI against drosophila (FIG. 1) / RI (FIG. 2 and 3): RI = (N1−N2)/(N1+N2); N1 solvent tube, N2 compound tube; conditions: for RI against drosophila (FIG. 1): concentration not given; for repellent or attractant activity against drosophila, in words: in vivo; for repellent activity compared with DEET, in words: 1% concentration in EtOH
Method: Description of Test system. To evaluate repellent efficacy, compounds were added to test chambers, each containing 40 drosophila. The test was performed in 3 phases: 1) fast (flies aspirated to test tubes); 2) implementation of the system (addition of filter paper, addition of solvent containing test compound); and 3) counting of the flies (after 22 hours exposure to test compound). The number of drosophila in each tube were counted: number of flies in the “filter paper+Solvent” tube was designated N1 and the number of flies in the “filter paper impregnated with test compound” was designated N2.
The Repulsive Index (R1) is given by the following equation: (N1−N2)/(N1+N2).

[1] = reported by US EPA; cited from earlier work
acetylcholinesterase = conditions: insects and mammals; cited from earlier work
mosquitoes = conditions: absence of body odor attractants such as 1-octen-3-ol, lactic acid, or carbon dioxide; cited from earlier work
Aedes mosquitoes = conditions: cited from earlier work
Culex = conditions: cited from earlier work
[2] = share of drosophila in solvent tube (AcOEt), product concentration not given
[3] = 10% solution of product, share of drosophila in EtOH tube
[4] = 10% solution of product, share of drosophila in product tube versus EtOH tube
[5] = 20% solution of product, share of drosophila in EtOH tube
[6] = 20% solution of product, share of drosophila in product tube versus EtOH tube
[7] = share of drosophila in product tube versus EtOH tube after 22 hours, product concentration not given
[8] = share of drosophila in solvent tube (filter paper + EtOH) after 22 hours, product concentration not given
[9] = 5% solution of product, share of drosophila in EtOH tube
[10] = 5% solution of product, share of drosophila in product tube versus EtOH tube

Compound	In vivo tests: Tube EtOH (drosophila; [3]) [%]	In vivo tests: Tube product (drosophila; [4]) [%]	In vivo tests: Tube EtOH (drosophila; [5]) [%]	In vivo tests: Tube product (drosophila; [6]) [%]	also measured
CCN(CC)C(=O)c1cccc(C)c1 [DEET, N,N-Diethyl-meta-toluamide]	–	–	–	–	RI against drosophila (FIG. 1) (drosophila): > 0.9; deaths among the potential DEET-associated seizure cases [1]: 4 deaths; activity on acetylcholinesterase, in words (acetylcholinesterase): inhibit the activity; repellent activity in behavioral test, in words (mosquitoes): strong repellent activity
C=CCOc1ccc2ccc(=O)oc2c1 [EV04032]	–	–	–	–	In vivo tests: Tube AcOEt (drosophila; [2]): 62.25%
CCC(C)Oc1ccc2ccc(=O)oc2c1 (centres unmarked) [EV04058]	91.22	8.78	88.02	11.98	–
CCC(C)Oc1ccc2ccc(=O)oc2c1 (centres unmarked) [EV04070]	92.79	7.21	91.34	8.66	repellent or attractant activity against drosophila, in words (drosophila): significant repellent activity
C=C(C)C1CC=C(COc2ccc3ccc(=O)oc3c2)CC1 (centres unmarked) [EV04090]	–	–	–	–	In vivo tests: Tube CH2Cl2 (drosophila; share of drosophila in solvent tube (CH2Cl2), product concentration not given): 70.20%; Repulsive Index (RI) (drosophila; solvent CH2Cl2 according to Table 2, Tested Concentration 0.666 mmol/mL): 0.404
CCC(C)COc1ccc2ccc(=O)oc2c1 (centres unmarked) [EV04094]	89.63	10.37	86.47	13.53	–
CCC(CC)Oc1ccc2ccc(=O)oc2c1 [EV04114]	88.00	12.00	93.09	6.91	repellent or attractant activity against drosophila, in words (drosophila): significant repellent activity
CC(=O)OC(C)C(=O)Oc1ccc2ccc(=O)oc2c1 (centres unmarked) [EV04122]	–	–	–	–	In vivo tests: Tube product (drosophila; [7]): 68.18%; In vivo tests: Tube EtOH (drosophila; [8]): 31.82%
CCCCN(CCCC)C(=O)COc1ccc2ccc(=O)oc2c1 [EV05120]	90.36	9.64	85.58	14.42	RI (FIG. 2 and 3) (drosophila; 10% solution in EtOH): ~0.8; RI (FIG. 2 and 3) (drosophila; 20% solution in EtOH): ~0.7; repellent or attractant activity against drosophila, in words (drosophila): acted as repellents
CCCCN(CCCC)C(=O)c1ccc2ccc(=O)oc2c1 [EV05138]	82.54	17.46	86.27	13.73	–
CC[C@H](C)OC(=O)c1ccc2ccc(=O)oc2c1 [EV05178]	54.77	45.23	85.50	14.50	RI (FIG. 2 and 3) (drosophila; 10% solution in EtOH): ~0.07; RI (FIG. 2 and 3) (drosophila; 20% solution in EtOH): ~0.7
CCC(CC)Oc1ccc2oc(=O)ccc2c1 [EV06018]	–	–	–	–	In vivo tests: Tube AcOEt (drosophila; [2]): 81.07%
CCCCCOc1ccc2ccc(=O)oc2c1 [EV06026]	87.53	12.47	94.12	5.88	–
CC(C)C(C)Oc1ccc2ccc(=O)oc2c1 (centres unmarked) [EV06028]	86.74	13.26	94.21	5.79	–
CC(C)CCOc1ccc2ccc(=O)oc2c1 [EV06036]	86.10	13.90	86.63	13.73	–
CCCC(C)Oc1ccc2ccc(=O)oc2c1 (centres unmarked) [EV06044]	83.91	16.08	96.12	3.82	repellent or attractant activity against drosophila, in words (drosophila): significant repellent activity
CCC(CC)Oc1cc(=O)oc2ccccc12 [EV06062]	93.10	6.90	98.26	1.74	repellent activity compared with DEET, in words (drosophila): remains as good a repellent as DEET; In vivo tests: Tube EtOH (drosophila; 1% solution of product, share of drosophila in EtOH tube): 87.08%; In vivo tests: Tube product (drosophila; 1% solution of product, share of drosophila in product tube versus EtOH tube): 12.92%; In vivo tests: Tube EtOH (drosophila; [9]): 96.08%; In vivo tests: Tube product (drosophila; [10]): 3.20%; Repulsive Index (RI) (drosophila; EtOH, fourth Tested Concentration, 0.056 mmol/mL (1% solution)): 0.742

Compound	In vivo tests: Tube EtOH (drosophila; [3]) [%]	In vivo tests: Tube product (drosophila; [4]) [%]	In vivo tests: Tube EtOH (drosophila; [5]) [%]	In vivo tests: Tube product (drosophila; [6]) [%]	also measured
CCC(C)Oc1ccc2oc(=O)ccc2c1 (centres unmarked) [EV06068]	90.91	9.09	93.85	6.15	–
CCC(C)Oc1cc(=O)oc2ccccc12 (centres unmarked) [EV06088]	90.50	9.50	91.04	8.96	–
CCCCCCCCN(CCCCCCCC)C(=O)COc1ccc2ccc(=O)oc2c1 [EV06092]	–	–	–	–	In vivo tests: Tube product (drosophila; [7]): 32.34%; In vivo tests: Tube EtOH (drosophila; [8]): 67.66%
CCCCCCCCN(CCCCCCCC)C(=O)c1ccc2ccc(=O)oc2c1 [EV06096]	67.84	32.16	95.33	4.67	repellent or attractant activity against drosophila, in words (drosophila): acted as repellents
CCCC(C)Oc1cc(=O)oc2ccccc12 (centres unmarked) [EV06098]	79.29	20.71	97.57	2.43	–
CCCCCCOc1ccc2ccc(=O)oc2c1 [EV06110]	91.09	8.91	89.06	10.94	–
CC(C)C(C)Oc1cc(=O)oc2ccccc12 (centres unmarked) [EV06128]	–	–	66.83	33.17	–
CCCCCOc1cc(=O)oc2ccccc12 [EV06136]	–	–	–	–	In vivo tests: Tube AcOEt (drosophila; 20% solution of product, share of drosophila in AcOEt tube): 88.56%; In vivo tests: Tube product (drosophila; 20% solution of product, share of drosophila in product tube versus AcOEt tube): 11.44%
CC(C)CCOc1cc(=O)oc2ccccc12 [EV06140]	90.10	9.90	91.92	8.08	–
CCCCCCCCOc1ccc2ccc(=O)oc2c1 [EV06144]	90.00	10.00	91.73	8.37	In vivo tests: Tube EtOH (drosophila; [9]): 91.35%; In vivo tests: Tube product (drosophila; [10]): 8.65%
CCCCCCC(C)Oc1ccc2ccc(=O)oc2c1 (centres unmarked) [EV06148]	93.66	6.34	96.00	4.00	repellent activity compared with DEET, in words (drosophila): remained as effective a repellent as DEET
CCCC(C)Oc1ccc2oc(=O)ccc2c1 (centres unmarked) [EV06154]	93.03	6.97	96.57	3.43	repellent activity compared with DEET, in words (drosophila): performed effectively as a repellent
CC(C)(C)COc1ccc2ccc(=O)oc2c1 [EV06162]	–	–	–	–	repellent or attractant activity against drosophila, in words (drosophila): strong drosophila attractant
CCC(C)NC(=O)c1ccc2ccc(=O)oc2c1 (centres unmarked) [EV06166]	–	–	–	–	RI against drosophila (FIG. 1) (drosophila): ~0.2
CCC(C)NC(=O)COc1ccc2ccc(=O)oc2c1 (centres unmarked) [EV06178]	–	–	–	–	RI against drosophila (FIG. 1) (drosophila): ~−0.2; repellent or attractant activity against drosophila, in words (drosophila): appeared to provide attractant activity
CCC(C)OC(=O)N1CCCCC1CCO (centres unmarked) [picaridine, hydroxyethyl isobutyl piperidine carboxylate]	–	–	–	–	protection against Aedes mosquitoes (Aedes mosquitoes; 7% solution): little or no protection; protection time against Aedes (Aedes mosquitoes; 15% solution): about one; RI against drosophila (FIG. 1) (drosophila): > 0.6; protection time against Culex (Culex; 7% solution): about 2.5 hours; protection time against Culex (Culex; 15% solution): 4.8 h
